Common to all, as to assay type: cell-based
In one assay the target is T1, TLR2/6 (Mus musculus, UniProt Q9EPW9+Q9QUN7).
T1 construct: RAW 264.7 Cells Nitric Oxide TLR Selectivity Assay; endogenous in cells; host or cells: RAW 264.7
Description: RAW 264.7 nitric oxide TLR selectivity assay (FSL-1). The note with it: 10 ng/mL FSL-1. The protocol:
(§1) RAW 264.7 (Mouse leukaemic monocyte macrophage cell line) cells were grown in RPMI 1640 medium, supplemented with 10% FBS, penicillin (100 U/mL) and streptomycin ([…]). RAW cells were then planted in 96-well plates at 80,000 cells per well and grown for 24 h in the media descried previously at 37° C. in a 5% CO2 humidified incubator. After 24 h, non-adherent cells and media were removed and replaced with fresh unsupplemented RPMI 1640 medium. The adherent macrophages were treated with Pam3CSK4 (CAS No. 112208-00-1; a synthetic triacylated lipopeptide (LP) that mimics the acylated amino terminus of bacterial LPs) (200 ng/mL) (Invivogen, USA), an agonist of TLR1/2, and then added different concentrates of potential inhibitor. Two rows were only treated with Pam3CSK4 as control. Plates were then incubated for an additional 24 h. Following incubation 100 μL of media was removed and added to flat black 96-well microfluor plates (Thermo Scientific, MA, USA). To each well, 10 μL of 2,3-diaminonaphthalene (0.05 mg/mL in 0.62 M aqueous HCl solution) was added and incubated for 15 min in the dark. The reaction was quenched by addition of 5 μL of a 3 M aqueous NaOH solution and the plate was read on Beckman Coulter DTX880 reader (Beckman Coulter, Calif., USA) with excitation at 365 nm and emission at 450 nm. The nitrite (a stable metabolite of nitric oxide) concentration was determined from a nitrite standard curve. The inhibition rate (%) of NO release was determined using the following formula: Inhibition (%)=[Pam3CSK4(OD450) […]]/[Pam3CSK4 (OD450)−Control (OD450)]×100. The IC50 values for both inhibition and cytotoxicity were determined graphically using software Origin v7.5.
This assay was run in a similar manor as the “In Vitro TLR1/2 Inhibition Assay”. High molecule weight Poly (I:C), LPS (lipopolysaccharide), FSL-1 (Synthetic diacylated lipoprotein—TLR2/TLR6 ligand commercially available from Invivogen, USA), and R848 ([…]) were used to selectively activate TLR3, TLR4, TLR2/6 and TLR7 in place of Pam3CSK4, respectively.

A further assay has as its target T2, TLR1/2 (Mus musculus, UniProt Q9EPQ1+Q9QUN7).
T2 construct: production of NO in RAW 264.7 macrophage cells; endogenous in cells; host or cells: RAW 264.7
The assay can be described thus: In vitro TLR1/2 inhibition assay (nitric oxide, Pam3CSK4-activated RAW 264.7 macrophages). The note with it: for TLR1/2 inhibitory activity (in words, SAR and specificity): RAW 264.7 NO assay, Pam3CSK4; for IC50: RAW 264.7 cells, Pam3CSK4 200 ng/mL, nitric oxide readout, read-out: IC50, inhibition of Pam3CSK4-induced TLR1/2 activation (NO assay). The protocol:
To identify novel TLR1/2 complex inhibitors, a cell-based assay was employed to screen the NCI-2 diversity small-molecule library. This 1,363 compound library was chosen from the larger NCI library, which has more than 140,000 compounds, on the basis of availability, purity, and other pharmacological features, such as relative rigidity, number of rotatable bonds and chiral centers, the absence of obvious leaving groups and weakly bounded heteroatoms, etc. Screening was performed in a 96-well plate format using a previously established high-throughput nitric oxide (NO) assay. See e.g. Cheng et al., Small molecule inhibitors of the TLR3/dsRNA complex, J. Am. Chem. Soc. (2011), 133:3764-67, which is herein incorporated by reference in its entirety. Briefly, synthetic triacylated lipoprotein Pam3CSK4 was employed to selectively activate TLR1/2 signaling, resulting in the expression of inducible nitric oxide synthase (iNOS) and the production of NO in RAW 264.7 macrophage cells. NO levels were monitored as an indicator of Pam3CSK4-induced TLR1/2 activation to evaluate the compound's inhibitory activity.
as §1

A further assay has as its target T3, TLR4 (Mus musculus, UniProt Q9JHF9+Q9QUK6).
T3 construct: RAW 264.7 Cells Nitric Oxide TLR Selectivity Assay; endogenous in cells; host or cells: RAW 264.7
T3 sequence (Q9QUK6 26-835): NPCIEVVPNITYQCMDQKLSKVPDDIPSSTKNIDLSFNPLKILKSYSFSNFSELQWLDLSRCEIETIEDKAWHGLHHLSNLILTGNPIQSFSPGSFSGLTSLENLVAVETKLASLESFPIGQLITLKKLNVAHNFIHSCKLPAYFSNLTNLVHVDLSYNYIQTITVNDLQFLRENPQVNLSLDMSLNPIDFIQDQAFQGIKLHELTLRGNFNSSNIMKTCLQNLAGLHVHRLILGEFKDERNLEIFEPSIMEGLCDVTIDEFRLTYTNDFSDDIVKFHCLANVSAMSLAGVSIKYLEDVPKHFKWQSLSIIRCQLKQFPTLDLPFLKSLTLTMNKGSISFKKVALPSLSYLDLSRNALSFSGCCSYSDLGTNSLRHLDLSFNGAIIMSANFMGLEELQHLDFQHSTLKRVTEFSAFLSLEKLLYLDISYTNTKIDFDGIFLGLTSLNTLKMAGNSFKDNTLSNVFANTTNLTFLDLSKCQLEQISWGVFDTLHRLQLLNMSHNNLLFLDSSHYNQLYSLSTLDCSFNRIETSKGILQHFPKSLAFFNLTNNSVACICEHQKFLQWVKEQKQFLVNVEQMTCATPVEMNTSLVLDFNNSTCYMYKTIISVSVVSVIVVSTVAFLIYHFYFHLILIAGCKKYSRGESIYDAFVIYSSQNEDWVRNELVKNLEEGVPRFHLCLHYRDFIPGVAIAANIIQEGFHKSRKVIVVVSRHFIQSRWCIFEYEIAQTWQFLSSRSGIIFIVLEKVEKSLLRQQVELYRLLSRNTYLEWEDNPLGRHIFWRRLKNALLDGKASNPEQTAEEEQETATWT
T3 sequence (Q9JHF9 19-160): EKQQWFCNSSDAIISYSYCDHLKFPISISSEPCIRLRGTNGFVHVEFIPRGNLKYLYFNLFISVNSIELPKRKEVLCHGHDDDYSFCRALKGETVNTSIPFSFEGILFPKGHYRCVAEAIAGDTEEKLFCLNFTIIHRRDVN
Description: RAW 264.7 nitric oxide TLR selectivity assay (LPS). The note with it: 10 ng/mL LPS. The procedure:
as §1, with “Plates were then incubated for an additional 24 h. Following incubation 100 μL of media was removed and added to flat black 96-well microfluor plates (Thermo Scientific, MA, USA). To each well, 10 μL of 2,3-diaminonaphthalene (0.05 mg/mL in 0.62 M aqueous HCl solution) was added and incubated for 15 min in the dark.” left out, “v7.5. […]” for “v7.5.”

T2 sequence (Q9EPQ1 26-795): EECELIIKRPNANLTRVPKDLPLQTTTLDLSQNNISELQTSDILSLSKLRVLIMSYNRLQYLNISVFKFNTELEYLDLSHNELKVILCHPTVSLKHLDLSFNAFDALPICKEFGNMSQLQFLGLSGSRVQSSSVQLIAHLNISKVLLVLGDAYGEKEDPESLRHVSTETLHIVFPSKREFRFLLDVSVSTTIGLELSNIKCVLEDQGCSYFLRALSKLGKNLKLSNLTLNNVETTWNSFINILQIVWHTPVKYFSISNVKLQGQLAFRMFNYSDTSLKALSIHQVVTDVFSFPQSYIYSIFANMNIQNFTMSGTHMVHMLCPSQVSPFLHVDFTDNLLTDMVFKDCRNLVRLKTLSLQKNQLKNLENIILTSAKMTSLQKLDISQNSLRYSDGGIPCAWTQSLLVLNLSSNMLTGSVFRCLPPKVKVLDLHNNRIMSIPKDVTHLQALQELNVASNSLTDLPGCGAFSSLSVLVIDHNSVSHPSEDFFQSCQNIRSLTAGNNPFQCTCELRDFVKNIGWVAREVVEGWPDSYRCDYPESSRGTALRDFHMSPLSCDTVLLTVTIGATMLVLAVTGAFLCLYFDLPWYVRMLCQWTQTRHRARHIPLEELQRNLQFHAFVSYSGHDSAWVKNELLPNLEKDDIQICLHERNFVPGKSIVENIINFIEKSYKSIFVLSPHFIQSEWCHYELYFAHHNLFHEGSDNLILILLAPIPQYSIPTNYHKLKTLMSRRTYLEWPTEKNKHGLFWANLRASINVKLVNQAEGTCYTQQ
T2 sequence (Q9QUN7 25-784): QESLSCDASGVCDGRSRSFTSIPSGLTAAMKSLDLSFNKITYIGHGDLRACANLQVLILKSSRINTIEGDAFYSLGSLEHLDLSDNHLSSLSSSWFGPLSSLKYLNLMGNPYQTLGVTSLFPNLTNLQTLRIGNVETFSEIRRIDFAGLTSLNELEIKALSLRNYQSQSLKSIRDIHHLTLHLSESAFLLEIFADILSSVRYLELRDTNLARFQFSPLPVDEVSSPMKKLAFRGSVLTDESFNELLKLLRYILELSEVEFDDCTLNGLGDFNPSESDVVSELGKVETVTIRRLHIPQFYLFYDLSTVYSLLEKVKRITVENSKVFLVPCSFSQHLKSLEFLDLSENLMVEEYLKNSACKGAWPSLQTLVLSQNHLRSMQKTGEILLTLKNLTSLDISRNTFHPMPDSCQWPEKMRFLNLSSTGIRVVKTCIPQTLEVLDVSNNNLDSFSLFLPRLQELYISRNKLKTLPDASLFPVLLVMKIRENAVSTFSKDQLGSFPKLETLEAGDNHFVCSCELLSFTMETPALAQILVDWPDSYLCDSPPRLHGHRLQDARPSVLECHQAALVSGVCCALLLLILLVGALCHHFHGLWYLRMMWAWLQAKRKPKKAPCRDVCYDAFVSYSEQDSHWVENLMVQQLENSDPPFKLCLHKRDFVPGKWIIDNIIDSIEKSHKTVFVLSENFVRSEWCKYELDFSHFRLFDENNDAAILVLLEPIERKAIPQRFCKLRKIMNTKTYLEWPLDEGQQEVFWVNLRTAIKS
T1 sequence (Q9QUN7 25-784): as above
T1 sequence (Q9EPW9 28-795): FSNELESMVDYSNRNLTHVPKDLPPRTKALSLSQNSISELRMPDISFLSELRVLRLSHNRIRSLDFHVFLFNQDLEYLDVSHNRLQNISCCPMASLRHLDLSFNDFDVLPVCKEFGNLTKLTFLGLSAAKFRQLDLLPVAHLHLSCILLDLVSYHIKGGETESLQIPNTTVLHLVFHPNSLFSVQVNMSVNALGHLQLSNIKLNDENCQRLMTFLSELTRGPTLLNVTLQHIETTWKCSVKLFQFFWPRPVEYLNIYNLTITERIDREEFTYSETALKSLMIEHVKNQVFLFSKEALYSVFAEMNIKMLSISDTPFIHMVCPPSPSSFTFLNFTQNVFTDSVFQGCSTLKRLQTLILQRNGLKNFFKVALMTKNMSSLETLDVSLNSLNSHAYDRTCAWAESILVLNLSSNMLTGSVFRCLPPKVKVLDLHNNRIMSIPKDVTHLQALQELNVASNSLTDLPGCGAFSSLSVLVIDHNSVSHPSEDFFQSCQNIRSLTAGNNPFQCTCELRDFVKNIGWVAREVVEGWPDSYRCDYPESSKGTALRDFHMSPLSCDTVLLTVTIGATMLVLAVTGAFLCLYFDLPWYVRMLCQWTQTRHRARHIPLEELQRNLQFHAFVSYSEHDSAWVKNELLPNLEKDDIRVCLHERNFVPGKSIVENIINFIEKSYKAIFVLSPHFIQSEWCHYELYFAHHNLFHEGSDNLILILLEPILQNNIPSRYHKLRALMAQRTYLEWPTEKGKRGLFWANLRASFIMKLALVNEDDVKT

Regarding `O=c1c(O)cccc2cc(O)c(O)c(O)c12` [NCI35676, purpurogallin, reference compound], the “inhibition of TLR2/6 signaling” value against TLR2/6 (3 μM compound) is recorded as “no other homologous TLRs”. Besides, on TLR1/2, the “TLR1/2 inhibitory activity (in words, SAR and specificity)” value is listed as “specifically inhibited TLR1/2 signaling”; the IC50 is 2.45 ± 0.25 µM. In addition, the “inhibition of TLR4 signaling” value at TLR4 (3 μM compound) is listed as “no other homologous TLRs”.
Regarding `CCCCCCOC(=O)c1cc(O)c(=O)c2c(O)c(O)c(OC)cc2c1` [compound 17, Hexyl 3,4,6-trihydroxy-2-methoxy-5-oxo-5H-benzo[7]annulene-8-carboxylate], the “inhibition of TLR2/6 signaling” value is on record as “no significant inhibition” on TLR2/6 (0.5 μM compound) and “without affecting other TLRs” against TLR2/6 (0.5 μM compound, listed as Compound 17). Further, the “TLR1/2 inhibitory activity (in words, SAR and specificity)” value was “highest inhibitory activity” at TLR1/2 and “inhibit TLR1/2 signaling” on TLR1/2 (listed as Compound 17). The IC50 on TLR1/2 was 0.58 ± 0.09 µM. The “inhibition of TLR4 signaling” value against TLR4 (0.5 μM compound) is recorded as “without affecting other TLRs”.

The values above are taken from US9517993B2, “Antagonists of the toll-like receptor 1/2 complex” (THE REGENTS OF THE UNIVERSITY OF COLORADO, a body corporate, priority 2012, dated 2016).
